# According to publication PMC9032385, “A2A Adenosine Receptor Antagonists: Are Triazolotriazine and Purine Scaffolds Interchangeable?” (Molecules, 2022):
# Assays:
# human recombinant A2AAR = molecular target: T1, human recombinant A2AAR (Homo sapiens, UniProt P29274); test: Radioligand binding at human A2AAR ([3H]NECA displacement, CHO cell membranes)
# T1 construct: expressed in transfected cells; membrane preparation
# Protocol: Most of the compounds were also evaluated at A2BARs in a functional study using the GloSensor cAMP assay. […] In the case of A2BARs, Ki-values were calculated from IC50-values determined by the inhibition of NECA-stimulated adenylyl cyclase activity.
# Preparation of membranes: Cell membranes for binding assays were prepared mechanically detaching the cells from the petri and suspending them in a cold hypotonic buffer (5 mM Tris/HCl, 2 mM EDTA, pH 7.4). The cell suspension was homogenized (Ultra-Turrax, 2 × 15 s at maximum speed) and the homogenate centrifuged for 10 min (4 °C) to 1000× g. […] The amount of the protein suspension was determined according to the […] using the BCA Protein Assay Kit (Pierce), frozen in liquid nitrogen, and stored at −80 °C.
# Binding assays: The dissociation constants of the radioligand (KD) were calculated through saturation assays, while the dissociation constants of the compounds under study (Ki) were determined by competition experiments. All binding data were calculated by nonlinear regression curves using the software GraphPad Prism 5 (GraphPad Software, San Diego, CA, USA). The increasing concentrations of the radioligand saturation binding ([^3H]-CCPA for the A1 receptor subtype, [^3H]-NECA for the A2A receptor subtype, and [^3H]-HEMADO for the A3 receptor) subtype were incubated in a total volume of 250 μL containing 0.2 U/mL of Ado deaminase (ADA) and 12 micrograms of membrane proteins in the specific buffer. In competition experiments for the A1 receptor subtype, each compound was added at increasing concentrations, to the well containing 1 nM of [^3H]-CCPA, to a final volume of 200 μL. The samples were left to incubate for 3 h at room temperature, filtered in a filter 96-well plate (UniFilter GF/C, Perkin-Elmer Life and Analytical Science, Boston, MA) using the FilterMate Cell Harvester (Perkin-Elmer), and washed 3 times with cold distilled water. After drying the filter plate at 40 °C for 30′, they 20 μL of scintillating liquid (Microscint-20, Perkin-Elmer) was added to each well, and then the radioactivity was quantized with the MicroBeta2 Plate Counter (Perkin-Elmer). The conditions for binding experiments at A2A and A3 receptor subtypes were essentially the same as for the A1AR using [^3H]-NECA (N-ethylcarboxyamideAdo) at a concentration of 10 nM and [^3H]-HEMADO (2-(1-hexyne)-N^6-methylAdo) at a concentration of 1 nM as radioligands, respectively. The samples were incubated with 12 micrograms of protein for 3 h at room temperature and filtered as described above.
# The non-specific binding was determined in the presence of 1 mM theophylline for the A1AR, or 100 µM R-PIA (N^6-(1-methyl-2-phenylethyl)Ado) for the A2A and A3 receptors.
# [1] = tested on: BV-2 murine microglial cells; test: RT-PCR expression of inflammatory mediators in LPS-activated BV-2 cells; assay type: cell-based
# Protocol: BV-2 cells were treated with 13 or ANR 94 (10 nM) and activated with 100 ng/mL LPS for 24 h. Total RNA was isolated, and proinflammatory cytokine and enzyme expressions were measured using RT-PCR (Figure 5).
# (§1) Cell Cultures and Treatments: BV-2 murine microglial cells (a gift from Prof. Elisabetta Blasi of the University of Modena and Reggio Emilia, Modena, Italy) were maintained at 37 °C and 5% CO2 in a humidified incubator and grown in DMEM supplemented with 10% (v/v) low-endotoxin fetal bovine serum (Euroclone—Milan, Italy), 2 mM L-glutamine, 50 U/mL penicillin, and 50 μg/mL streptomycin (Sigma-Aldrich–Merck, Milan, Italy). Cells were seeded at 50,000 cells/mL in 96-well tissue culture plates for the viability assay, in 6-well tissue culture plates for the Griess assay and RT-PCR assay. BV-2 cells were treated for 24 h with ANR 94 or 13 at different concentrations and then exposed to LPS (100 ng/mL; Sigma-Aldrich–Merck) for a further 24 h.
# Real-Time Polymerase Chain Reaction (PCR): At the end of the experiments, total RNA was extracted by BV-2 cells using RNeasy Mini Kit (QIAGEN GmbH, Hilden, Germany). RNA concentraion and quality were measured on a NanoVue Spectrophotometer (GE Healthcare, Milano, Italy). iScript cDNA Synthesis Kit (Bio-Rad, Hercules, CA, USA) was used to synthesize cDNA starting from the extracted RNA, following the supplier’s instructions. PCR was performed by adding 2.5 μL (12.5 ng) of cDNA, 5 μL SsoAdvanced Universal SYBR Green Supermix (Bio-Rad), and 0.5 μL (500 nM) of each primer (Table 2) to a PCR tube. cDNA amplification was started at 95 °C for 30 s to activate the polymerase, followed by 40 cycles of 5 s at 95 °C and 30 s at 60 °C. Normalized expression levels were calculated relative to the control cells according to the 2^−ΔΔCT method.
# [2] = tested on: BV-2 murine microglial cells; test: MTT viability assay in BV-2 cells; assay type: cell-based; conditions: 24 h, 50–5000 nM, up to 5 μM
# Protocol: First of all, we verified the potential cytotoxicity of 13 in our cell model system. BV-2 cells were treated with increasing concentrations of the compound for 24 h and cell viability was evaluated by MTT assay (Figure 4A).
# as §1
# MTT Viability Assay: MTT assay was performed to quantify the viability of BV-2 cells as previously reported. […] The absorbance was measured at 595 nm using a microplate spectrophotometer (VICTOR3 V Multilabel Counter; PerkinElmer, Wellesley, MA, USA). Data are expressed as a percentage of the control cells, which is considered 100% cell viability.
# [3] = 10 nM for 24 h, then 100 ng/mL LPS 24 h
# T1 sequence (P29274 whole entry): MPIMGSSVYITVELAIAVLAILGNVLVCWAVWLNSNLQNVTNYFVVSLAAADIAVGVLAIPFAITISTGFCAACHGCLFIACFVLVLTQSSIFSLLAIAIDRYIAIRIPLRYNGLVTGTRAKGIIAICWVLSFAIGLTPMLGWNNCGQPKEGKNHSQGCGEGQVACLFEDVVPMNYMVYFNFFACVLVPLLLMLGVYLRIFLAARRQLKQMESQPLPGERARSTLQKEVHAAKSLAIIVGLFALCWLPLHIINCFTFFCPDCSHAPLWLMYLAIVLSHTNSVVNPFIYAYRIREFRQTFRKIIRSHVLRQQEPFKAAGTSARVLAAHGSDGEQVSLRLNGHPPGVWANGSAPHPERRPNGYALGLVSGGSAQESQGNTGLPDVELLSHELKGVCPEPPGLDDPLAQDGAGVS
smiles,measurement,setting,value
"CCn1c(-c2ccco2)nc2c(N)nc(NCCc3ccc(O)cc3)nc21 [compound 13, 4-(2-((6-Amino-9-ethyl-8-(furan-2-yl)-9H-purin-2-yl)amino)ethyl)phenol]",Ki,"human recombinant A2AAR; displacement of [3H]NECA, CHO membranes, n = 3–5, means ± standard errors",1.8 nM
same,selectivity A1/A2A,human recombinant A2AAR; ratio of Ki values,28
same,selectivity A2B/A2A,human recombinant A2AAR; ratio of Ki values,796
same,selectivity A3/A2A,human recombinant A2AAR; ratio of Ki values,7
same,IL-10 mRNA expression,[1]; 10 nM before 100 ng/mL LPS 24 h,maintained IL-10 expression to a level comparable to the control cells
same,COX-2 mRNA expression vs LPS,[1]; [3],significantly reduced the expression
same,IL-1β mRNA expression vs LPS,[1]; [3],significantly reduced the expression
same,IL-6 mRNA expression vs LPS,[1]; [3],significantly reduced the expression
same,iNOS mRNA expression vs LPS,[1]; [3],significantly reduced the expression
same,NLRP3 mRNA expression vs LPS,"[1]; 10 nM pre-treatment, 100 ng/mL LPS 24 h",significantly reduced
same,"cytotoxicity (cell viability, MTT)",[2],did not show any cytotoxicity
